The text below walks through data of ChEMBL document CHEMBL1275296, “Synthesis and antimicrobial studies of thiazolotriazinones” (2010).

In test [1] the test system is Klebsiella pneumoniae. The experiment in a line: Antibacterial activity against Klebsiella pneumoniae after 24 hrs by broth dilution method. The class given is functional. A general note: In broth dilution the organism is exposed to a series of concentrations in liquid medium.
For test [2], the system named is Pseudomonas aeruginosa. Put plainly: Antibacterial activity against Pseudomonas aeruginosa after 24 hrs by broth dilution method. The class given is functional.
Test [3] has as its system Klebsiella pneumoniae. The experiment in a line: Antibacterial activity against Klebsiella pneumoniae after 24 hrs. The class given is functional.
Test [4] concerns Aspergillus flavus. The experiment in a line: Antifungal activity against Aspergillus flavus by measuring inhibition zone after 48 hrs. The class given is functional.
Test [5] concerns Staphylococcus aureus. The experiment in a line: Antibacterial activity against Staphylococcus aureus after 24 hrs by broth dilution method. The class given is functional.
Test [6] has as its system Aspergillus fumigatus. The experiment in a line: Antifungal activity against Aspergillus fumigatus at >100 ug/mL after 48 hrs. Type of test: functional, organism-based.
The test system of test [7] is Streptococcus pyogenes. Put plainly: Antibacterial activity against Streptococcus pyogenes after 24 hrs. The class given is functional.
Test [8] deals with Aspergillus flavus. Put plainly: Antifungal activity against Aspergillus flavus after 48 hrs. Type of test: functional.
The test system of test [9] is Trichophyton mentagrophytes. The experiment in a line: Antifungal activity against Trichophyton mentagrophytes by measuring inhibition zone after 48 hrs. Type of test: functional.
For test [10], the system named is Staphylococcus aureus. Put plainly: Antibacterial activity against Staphylococcus aureus after 24 hrs. Type of test: functional.
In test [11] the test system is Talaromyces marneffei. Put plainly: Antifungal activity against Penicillium marneffei after 48 hrs. The class given is functional.
The subject of test [12] is Talaromyces marneffei. The experiment in a line: Antifungal activity against Penicillium marneffei by measuring inhibition zone after 48 hrs. Type of test: functional.
Test [13] concerns Pseudomonas aeruginosa. Put plainly: Antibacterial activity against Pseudomonas aeruginosa after 24 hrs. Type of test: functional.
For test [14], the system named is Candida albicans. Put plainly: Antifungal activity against Candida albicans by measuring inhibition zone after 48 hrs. Type of test: functional.
Test [15] relates to Escherichia coli. The experiment in a line: Antibacterial activity against Escherichia coli at >100 ug/mL after 24 hrs by broth dilution method. The class given is functional, organism-based.
Test [16] concerns Streptococcus pyogenes. The experiment in a line: Antibacterial activity against Streptococcus pyogenes after 24 hrs by broth dilution method. The class given is functional.
The subject of test [17] is Candida albicans. The experiment in a line: Antifungal activity against Candida albicans after 48 hrs. The class given is functional.
Test [18] concerns Trichophyton mentagrophytes. The experiment in a line: Antifungal activity against Trichophyton mentagrophytes after 48 hrs. The class given is functional.

The term MIC denotes the lowest concentration that inhibits growth of the organism. A low value points to inhibition by little substance.

Converted amounts (≈) assume the structure as drawn. The source made the active and inactive calls. No cut-off for these calls is given here.

Consider `COc1ccc(-c2csc3nnc(Cc4ccc(Cl)cc4)c(=O)n23)cc1`, for which the MIC was determined as 6.25 µg/mL (≈ 16.3 µM) in test [1]; 12.5 µg/mL (≈ 32.6 µM) in test [2]; 12.5 µg/mL (≈ 32.6 µM) in [5]; 6.25 µg/mL (≈ 16.3 µM) in [8]; 25 µg/mL (≈ 65.1 µM) in test [11]; 25 µg/mL (≈ 65.1 µM) in test [16]. For the same compound, the MIC in test [17] and in test [18] was 12.5 µg/mL (≈ 32.6 µM) throughout. In addition, the “inhibition zone (IZ)” value in test [3] was determined as 19 mm; in test [4], 19 mm; in test [7] it was 10 mm; in [9], 14 mm; in test [10], 12 mm; in test [12], 9 mm. Moreover, the “inhibition zone (IZ)” value in test [13] is listed as 14 mm; in [14], 11 mm. For the same compound, the inhibition result in test [6] and in test [15] was “inactive” in each case.
